The results in this text go back to BindingDB's records for doi:10.1021/acs.jmedchem.5b02042 (University of South Florida, 2016).

The structures appear in SMILES notation.

This assay addresses Stromal cell-derived factor 1 (Homo sapiens, UniProt P48061). The assay can be described thus: Binding affinity to His6-SUMO fusion tagged wild type human [U-15N]CXCL12 expressed in Escherichia coli by 2D 1H-15N HMQC NMR spectroscopy.

Sequence of Stromal cell-derived factor 1 (P48061 whole entry, the tested form may be a part): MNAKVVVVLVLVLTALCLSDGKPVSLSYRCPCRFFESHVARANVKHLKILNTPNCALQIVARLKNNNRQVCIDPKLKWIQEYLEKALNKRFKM

For `CCCOc1ccc(C(Nc2ccc(F)cc2)P(=O)(O)O)cc1` (configuration not stated), the Kd (usually the constant that tells how readily two partners part at equilibrium) was 1100 µM.
`O=C(O)CC1c2ccccc2CCN1C(=O)Nc1cccc(F)c1` (configuration not stated) registered a Kd of 4100 µM.
